In PubChem BioAssay AID463149 (The Scripps Research Institute Molecular Screening Center, 2010):

Assays:
Assay in all cases: PME-1 inhibition and serine hydrolase selectivity by ABPP – cell lysate, gel-based competitive ABPP, fluorescence, powder samples, selectivity assay, late-stage follow-up (AID 463149);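 also: 0% = DMSO-treated band intensity and 100% = blank gel background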
[1] = molecular target: Fatty acid synthase (Homo sapiens) (UniProt P49327); conditions: HeLa soluble proteome, FP-Rh fluorescence, measured here: Anti-Target FAS, stronger effect = higher value
Anti-Target CES = conditions: HeLa soluble proteome, FP-Rh fluorescence, measured here: Anti-Target CES, stronger effect = higher value
Anti-Target PREP = conditions: HeLa soluble proteome, FP-Rh fluorescence, measured here: Anti-Target PREP, stronger effect = higher value
[2] = molecular target: Acylamino-acid-releasing enzyme (Homo sapiens) (UniProt P13798); conditions: HeLa soluble proteome, FP-Rh fluorescence, measured here: Anti-Target APEH, stronger effect = higher value
[3] = molecular target: Protein phosphatase methylesterase 1 (Homo sapiens) (UniProt Q9Y570); conditions: HeLa soluble proteome, FP-Rh fluorescence, PME-1, inhibition, stronger effect = higher value
Anti-Target ABHD10 = conditions: HeLa soluble proteome, FP-Rh fluorescence, stronger effect = higher value

Chain of Fatty acid synthase (Homo sapiens) (P49327 whole entry, looked up): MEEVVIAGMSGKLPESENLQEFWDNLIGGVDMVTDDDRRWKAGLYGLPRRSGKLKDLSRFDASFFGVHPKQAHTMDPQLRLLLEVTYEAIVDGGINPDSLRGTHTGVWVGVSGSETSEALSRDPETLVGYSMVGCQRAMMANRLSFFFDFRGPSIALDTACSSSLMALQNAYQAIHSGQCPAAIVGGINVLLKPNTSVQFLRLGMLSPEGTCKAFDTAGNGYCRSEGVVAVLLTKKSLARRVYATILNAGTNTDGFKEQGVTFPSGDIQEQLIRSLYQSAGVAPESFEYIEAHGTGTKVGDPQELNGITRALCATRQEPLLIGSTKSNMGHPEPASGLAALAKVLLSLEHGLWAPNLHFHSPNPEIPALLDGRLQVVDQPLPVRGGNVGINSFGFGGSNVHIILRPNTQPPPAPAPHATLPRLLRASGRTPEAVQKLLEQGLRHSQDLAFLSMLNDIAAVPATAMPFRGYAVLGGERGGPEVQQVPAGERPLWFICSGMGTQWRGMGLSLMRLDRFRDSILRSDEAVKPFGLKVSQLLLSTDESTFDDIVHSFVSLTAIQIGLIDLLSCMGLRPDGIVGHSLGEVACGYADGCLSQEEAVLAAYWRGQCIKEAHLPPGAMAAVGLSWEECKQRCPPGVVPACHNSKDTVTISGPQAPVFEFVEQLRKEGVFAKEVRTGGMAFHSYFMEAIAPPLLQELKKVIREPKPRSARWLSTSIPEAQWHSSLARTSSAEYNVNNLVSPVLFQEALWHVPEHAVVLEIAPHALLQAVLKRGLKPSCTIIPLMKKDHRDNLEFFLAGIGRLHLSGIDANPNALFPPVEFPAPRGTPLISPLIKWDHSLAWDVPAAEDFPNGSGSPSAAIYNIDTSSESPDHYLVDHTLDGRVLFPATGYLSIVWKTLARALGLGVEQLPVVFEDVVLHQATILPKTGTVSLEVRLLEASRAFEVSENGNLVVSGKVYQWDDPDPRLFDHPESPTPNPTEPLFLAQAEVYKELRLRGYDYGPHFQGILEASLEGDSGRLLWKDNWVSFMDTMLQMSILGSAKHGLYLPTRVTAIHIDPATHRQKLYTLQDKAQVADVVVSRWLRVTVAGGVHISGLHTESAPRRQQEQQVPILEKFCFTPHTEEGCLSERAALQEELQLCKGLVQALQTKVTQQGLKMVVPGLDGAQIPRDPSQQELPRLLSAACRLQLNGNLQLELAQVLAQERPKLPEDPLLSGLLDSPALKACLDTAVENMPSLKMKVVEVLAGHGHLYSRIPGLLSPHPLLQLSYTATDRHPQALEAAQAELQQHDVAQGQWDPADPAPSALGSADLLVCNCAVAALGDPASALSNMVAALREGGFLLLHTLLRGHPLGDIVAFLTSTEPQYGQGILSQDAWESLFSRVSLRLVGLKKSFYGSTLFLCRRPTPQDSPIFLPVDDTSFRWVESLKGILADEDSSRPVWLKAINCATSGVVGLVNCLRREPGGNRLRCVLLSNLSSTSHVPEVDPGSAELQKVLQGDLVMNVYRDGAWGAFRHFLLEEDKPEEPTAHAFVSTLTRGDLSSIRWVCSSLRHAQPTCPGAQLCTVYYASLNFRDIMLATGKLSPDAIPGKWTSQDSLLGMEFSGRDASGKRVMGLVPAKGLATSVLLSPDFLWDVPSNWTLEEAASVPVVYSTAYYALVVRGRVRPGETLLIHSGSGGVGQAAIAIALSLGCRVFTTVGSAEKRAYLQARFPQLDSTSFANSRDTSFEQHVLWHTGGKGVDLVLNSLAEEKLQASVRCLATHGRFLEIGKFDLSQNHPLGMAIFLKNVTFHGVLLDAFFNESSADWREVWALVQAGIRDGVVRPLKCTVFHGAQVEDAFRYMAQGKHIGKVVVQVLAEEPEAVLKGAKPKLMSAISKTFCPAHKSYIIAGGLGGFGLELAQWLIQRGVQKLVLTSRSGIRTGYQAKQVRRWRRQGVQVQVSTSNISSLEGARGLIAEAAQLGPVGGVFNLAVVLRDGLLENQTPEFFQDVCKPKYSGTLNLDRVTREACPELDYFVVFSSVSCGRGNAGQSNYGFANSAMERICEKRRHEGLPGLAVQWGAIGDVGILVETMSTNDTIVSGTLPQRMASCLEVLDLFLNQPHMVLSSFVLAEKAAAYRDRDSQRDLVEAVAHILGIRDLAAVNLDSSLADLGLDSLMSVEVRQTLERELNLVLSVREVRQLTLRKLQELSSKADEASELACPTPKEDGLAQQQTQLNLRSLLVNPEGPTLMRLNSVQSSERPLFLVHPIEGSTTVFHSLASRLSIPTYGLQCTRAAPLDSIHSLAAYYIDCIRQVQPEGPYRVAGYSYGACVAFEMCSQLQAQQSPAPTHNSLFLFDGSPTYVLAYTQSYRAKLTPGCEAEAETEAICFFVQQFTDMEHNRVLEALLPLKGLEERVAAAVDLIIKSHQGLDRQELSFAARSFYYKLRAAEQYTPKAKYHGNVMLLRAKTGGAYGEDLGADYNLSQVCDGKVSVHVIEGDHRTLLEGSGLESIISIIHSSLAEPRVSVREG
Chain of Protein phosphatase methylesterase 1 (Homo sapiens) (Q9Y570 whole entry, looked up): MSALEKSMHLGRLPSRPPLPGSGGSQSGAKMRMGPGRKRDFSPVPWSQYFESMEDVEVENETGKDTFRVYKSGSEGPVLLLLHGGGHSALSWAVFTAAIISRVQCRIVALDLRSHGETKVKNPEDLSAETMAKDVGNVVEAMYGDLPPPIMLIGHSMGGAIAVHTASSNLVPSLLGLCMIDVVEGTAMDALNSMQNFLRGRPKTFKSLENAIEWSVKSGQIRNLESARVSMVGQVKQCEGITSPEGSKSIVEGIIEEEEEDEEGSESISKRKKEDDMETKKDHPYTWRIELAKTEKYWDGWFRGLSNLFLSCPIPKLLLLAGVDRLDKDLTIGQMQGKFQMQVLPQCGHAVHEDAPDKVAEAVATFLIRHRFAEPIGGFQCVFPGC
Chain of Acylamino-acid-releasing enzyme (Homo sapiens) (P13798 whole entry, looked up): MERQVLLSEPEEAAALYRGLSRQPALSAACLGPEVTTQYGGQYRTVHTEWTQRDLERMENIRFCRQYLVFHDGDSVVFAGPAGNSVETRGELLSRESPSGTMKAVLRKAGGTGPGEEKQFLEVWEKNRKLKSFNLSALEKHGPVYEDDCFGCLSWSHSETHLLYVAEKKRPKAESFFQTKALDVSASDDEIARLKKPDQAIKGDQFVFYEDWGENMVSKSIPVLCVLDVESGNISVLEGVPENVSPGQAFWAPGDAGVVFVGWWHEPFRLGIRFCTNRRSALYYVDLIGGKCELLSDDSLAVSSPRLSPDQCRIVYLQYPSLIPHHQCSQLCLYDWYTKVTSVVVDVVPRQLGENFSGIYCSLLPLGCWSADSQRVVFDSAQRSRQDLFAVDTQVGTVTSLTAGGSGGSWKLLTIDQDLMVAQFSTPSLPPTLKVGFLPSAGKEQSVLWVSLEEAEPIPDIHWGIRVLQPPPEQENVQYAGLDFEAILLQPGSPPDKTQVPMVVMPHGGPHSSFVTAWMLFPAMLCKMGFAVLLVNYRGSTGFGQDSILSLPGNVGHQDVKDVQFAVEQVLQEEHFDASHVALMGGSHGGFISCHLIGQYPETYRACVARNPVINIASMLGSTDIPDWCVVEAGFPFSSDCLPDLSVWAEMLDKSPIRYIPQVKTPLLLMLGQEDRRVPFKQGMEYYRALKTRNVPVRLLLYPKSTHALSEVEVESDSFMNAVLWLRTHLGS

- inhibition ([1]; at 1 µM): 0%
- inhibition ([1]; at 20 µM): 0%
- inhibition (Anti-Target CES; at 1 µM): 0%
- inhibition (Anti-Target CES; at 20 µM): 0%
- inhibition (Anti-Target PREP; at 1 µM): 0%
- inhibition (Anti-Target PREP; at 20 µM): 0%
- inhibition ([2]; at 1 µM): 0%
- inhibition ([2]; at 20 µM): 0%
- inhibition ([3]; at 1 µM): 50%
- inhibition ([3]; at 20 µM): 100%
- inhibition (Anti-Target ABHD10; measured here: Anti-Target ABHD10, at 1 µM): 0%
- inhibition (Anti-Target ABHD10; measured here: Anti-Target ABHD10, at 20 µM): 0%
SMILES: COC(=O)N1C(=O)[C@](c2ccsc2)(C(C)C)N1C(=O)OC
